# Measured values: patent publication US4593104A, “2-halo-N-(azole-1-yl-methyl)-substituted acetanilides” (BASF Aktiengesellschaft, priority 1976, dated 1986)
# Columns and labels:
# [1] = test system: Amar. retro.; test: preemergence treatment in the greenhouse, % damage; type: in vivo; conditions: one value printed for two rates (0.125 0.25 kg/ha)
# Summary of the method: (§1)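 Preemergence: active sprayed onto the soil surface immediately after sowing; pots sprinkler-irrigated and covered with transparent hoods until plants rooted. Postemergence: unhooded plants sprayed at 3–10 cm. Both run 4–6 weeks in greenhouse; damage 0 = none, 100 = no emergence or total kill of visible parts.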
# [2] = test system: Bromus spp.; test: preemergence treatment in the greenhouse, % damage; type: in vivo
# Summary of the method: as §1
# [3] = test system: Chrys. seget.; test: preemergence treatment in the greenhouse, % damage; type: in vivo; conditions: 0.25 kg/ha
# Summary of the method: as §1
# [4] = test system: Cyp. diff.; test: preemergence treatment in the greenhouse, % damage; type: in vivo
# Summary of the method: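 Plants in humus-poor sandy loam (~1.5%) received kg/ha doses of active as aqueous spray. Preemergence sprays preceded irrigation and hooding until rooting; postemergence sprays, without hoods, hit 3–10 cm plants. Injury was assessed 0–100 across 4–6 weeks.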
# [5] = test system: Euph. gen.; test: preemergence treatment in the greenhouse, % damage; type: in vivo; conditions: 0.25 kg/ha
# Summary of the method: as §1
# [6] = test system: Poa annua; test: preemergence treatment in the greenhouse, % damage; type: in vivo
# Summary of the method: as §1
# [7] = test system: Solanum nigrum; test: preemergence treatment in the greenhouse, % damage; type: in vivo; conditions: 0.25 kg/ha
# Summary of the method: as §1
# [8] = test system: Sorgh. halep.; test: preemergence treatment in the greenhouse, % damage; type: in vivo
# Summary of the method: as §1
# [9] = test system: Alopec. myosur.; test: preemergence application in the open, % damage; type: in vivo; conditions: 2.0 kg/ha
# Protocol: (§2) The experiments were carried out on small plots. The soil was a sandy loam having a pH of from 5 to 6 and containing from 1 to 1.5% humus. The treatment was preemergence, the active ingredients being applied immediately or at the latest 3 days after sowing. The crop plants were sown in rows. The weed flora was made up of the most widely varying species and was natural; the weed flora depended on the time of the year and in part on the crop (e.g., spring-germinating, summer-germinating). The substances were emulsified or suspended in water as the vehicle, and applied by means of a motor-driven plot spray mounted on a hitch. When no rain fell, the plots were watered to ensure germination and growth of the crop plants and weeds. All the experiments were run for several weeks. Over this period, assessments were made at certain intervals on the 0 to 100 scale.
# [10] = test system: Amar. retro.; test: preemergence application in the open, % damage; type: in vivo
# Protocol: as §2
# [11] = test system: Anth./Matric.; test: preemergence application in the open, % damage; type: in vivo; conditions: 2.0 kg/ha
# Protocol: as §2
# [12] = test system: Brassica napus; test: preemergence application in the open, % damage; type: in vivo; conditions: 2.0 kg/ha
# Protocol: as §2
# [13] = test system: Chenop. spp.; test: preemergence application in the open, % damage; type: in vivo
# Protocol: as §2
# [14] = test system: Echin. c.g.; test: preemergence application in the open, % damage; type: in vivo
# Protocol: as §2
# [15] = test system: Galins. spp.; test: preemergence application in the open, % damage; type: in vivo
# Protocol: as §2
# [16] = test system: Lamium spp.; test: preemergence application in the open, % damage; type: in vivo; conditions: 2.0 kg/ha
# Protocol: as §2
# [17] = test system: Stellaria media; test: preemergence application in the open, % damage; type: in vivo; conditions: 2.0 kg/ha
# Protocol: as §2
# [18] = test system: Glyc. max; test: preemergence application in the open, % damage; type: in vivo, Glycine max
# Protocol: as §2
# [19] = test system: Alopec. myosur.; test: postemergence application in the greenhouse, % damage; type: in vivo
# Excerpt: (§3) The vessels employed were plastic flowerpots having a volume of 300 cm^3; the substrate was a sandy loam containing about 1.5% humus. The seeds of the test plants (see Table 1) were sown shallow, and separated according to species. In the case of Cyperus esculentus, pregerminated tubers were planted. In the preemergence treatment, the active ingredients were then immediately applied to the surface of the soil. They were suspended or emulsified in water as the vehicle, and sprayed through atomizing nozzles. After the agents had been applied, the vessels were lightly sprinkler-irrigated to set germination and growth going, and to activate the chemical agents. The vessels were then covered with transparent plastic hoods until the plants had taken root. This cover ensured uniform germination of the test plants (to the extent that this was not impaired by the chemicals), and prevented readily volatile substances from evaporating.
# (§4) For postemergence treatment, the plants were first grown to a height of from 3 to 10 cm, depending on their habit, before treated. Hoods were not placed on the pots. The experiments were set up in the greenhouse, hotter areas (25° to 40° C.) being preferred for heat-loving species, and 15° to 30° C. for plants from moderate climates. The experiments were carried out for from 4 to 6 weeks. During this period the plants were tended and their reaction to the various treatments was assessed. The following tables contain the substances investigated, the application rates in kg/ha of active ingredient, and the test plant species. Assessments were made on a 0 to 100 scale, 0 denoting no damage or normal emergence, and 100 denoting no emergence or complete destruction of at least the visible plant parts.
# [20] = test system: Avena fat.; test: as above; type: in vivo
# Excerpt: as §3, §4
# [21] = test system: Chrys. seget.; test: as above; type: in vivo
# Excerpt: as §3, §4
# [22] = test system: Matric. spp.; test: as above; type: in vivo
# Excerpt: as §3, §4
# [23] = test system: Setaria spp.; test: as above; type: in vivo
# Excerpt: as §3, §4
# [24] = test system: Stell. med.; test: as above; type: in vivo
# Excerpt: as §3, §4
# [25] = test system: Cyper. escul.; test: as above; type: in vivo, Cyperus esculentus
# Excerpt: as §3, §4
structure (smiles),measurement,setting,value
Cc1cccc(C)c1N(Cn1cccn1)C(=O)CCl [Compound 5],% damage,[1],100%
same,% damage,[2]; 0.125 kg/ha,90%
same,% damage,[2]; 0.25 kg/ha,95%
same,% damage,[3],100%
same,% damage,[4]; 0.125 kg/ha,100%
same,% damage,[4]; 0.25 kg/ha,100%
same,% damage,[5],100%
same,% damage,[6]; 0.125 kg/ha,100%
same,% damage,[6]; 0.25 kg/ha,100%
same,% damage,[7],100%
same,% damage,[8]; 0.125 kg/ha,95%
same,% damage,[8]; 0.25 kg/ha,95%
same,% damage,[9],95%
same,% damage,"[10]; 0,5 kg/ha",100%
same,% damage,"[10]; 1,0 kg/ha",100%
same,% damage,[11],100%
same,% damage,[12],7.5%
same,% damage,"[13]; 0,5 kg/ha",69%
same,% damage,"[13]; 1,0 kg/ha",85%
same,% damage,"[14]; 0,5 kg/ha",100%
same,% damage,"[14]; 1,0 kg/ha",100%
same,% damage,"[15]; 0,5 kg/ha",91%
same,% damage,"[15]; 1,0 kg/ha",100%
same,% damage,[16],100%
same,% damage,[17],100%
same,% damage,"[18]; 0,5 kg/ha",0%
same,% damage,"[18]; 1,0 kg/ha",4%
same,% damage,[19]; 1.0 kg/ha,80%
same,% damage,[19]; 2.0 kg/ha,90%
same,% damage,[20]; 1.0 kg/ha,90%
same,% damage,[20]; 2.0 kg/ha,92%
same,% damage,[21]; 1.0 kg/ha,98%
same,% damage,[21]; 2.0 kg/ha,98%
same,% damage,[22]; 1.0 kg/ha,95%
same,% damage,[22]; 2.0 kg/ha,95%
same,% damage,[23]; 1.0 kg/ha,82%
same,% damage,[23]; 2.0 kg/ha,85%
same,% damage,[24]; 1.0 kg/ha,95%
same,% damage,[24]; 2.0 kg/ha,98%
same,% damage,[25]; 1.0 kg/ha,70%
same,% damage,[25]; 2.0 kg/ha,72%
